In patent US20120213758A1, “BIARYL PDE4 INHIBITORS FOR TREATING PULMONARY AND CARDIOVASCULAR DISORDERS” (DeCODE Genetics enf, priority 2007, published 2012):
Structures can show the parent of a compound that is named as a salt. Where two headings read alike, the source gives them in different places.

How the values were obtained:
hPDE4B = hPDE4B (Homo sapiens, UniProt Q07343); assay: In-vitro real-time enzyme-coupled spectrophotometric assay for PDE4 enzymes (hPDE4B)
hPDE4D = hPDE4D (Homo sapiens, UniProt Q08499); assay: In-vitro real-time enzyme-coupled spectrophotometric assay for PDE4 enzymes (hPDE4D)
Sequence of hPDE4D (Q08499 whole entry): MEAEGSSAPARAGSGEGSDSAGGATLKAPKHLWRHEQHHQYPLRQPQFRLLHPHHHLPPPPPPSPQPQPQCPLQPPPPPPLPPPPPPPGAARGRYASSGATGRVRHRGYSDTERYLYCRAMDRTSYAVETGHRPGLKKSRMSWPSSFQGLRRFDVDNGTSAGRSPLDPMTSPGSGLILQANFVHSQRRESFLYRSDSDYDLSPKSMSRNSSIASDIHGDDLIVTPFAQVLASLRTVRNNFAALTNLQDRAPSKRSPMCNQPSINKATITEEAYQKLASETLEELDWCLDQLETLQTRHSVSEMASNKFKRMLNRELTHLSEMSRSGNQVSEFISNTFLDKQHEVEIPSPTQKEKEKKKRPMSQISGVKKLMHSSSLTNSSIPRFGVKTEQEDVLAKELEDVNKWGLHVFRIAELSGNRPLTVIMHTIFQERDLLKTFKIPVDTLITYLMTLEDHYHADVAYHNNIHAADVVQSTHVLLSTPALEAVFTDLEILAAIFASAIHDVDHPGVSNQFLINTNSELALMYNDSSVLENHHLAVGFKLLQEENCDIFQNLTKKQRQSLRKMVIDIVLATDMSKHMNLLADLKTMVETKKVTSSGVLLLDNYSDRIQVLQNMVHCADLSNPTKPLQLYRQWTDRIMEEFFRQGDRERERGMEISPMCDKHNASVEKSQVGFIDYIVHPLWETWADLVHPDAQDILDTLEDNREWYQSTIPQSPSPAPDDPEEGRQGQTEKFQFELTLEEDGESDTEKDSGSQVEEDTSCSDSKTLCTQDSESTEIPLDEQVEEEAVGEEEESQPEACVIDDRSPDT

Sequence of hPDE4B (Q07343 whole entry): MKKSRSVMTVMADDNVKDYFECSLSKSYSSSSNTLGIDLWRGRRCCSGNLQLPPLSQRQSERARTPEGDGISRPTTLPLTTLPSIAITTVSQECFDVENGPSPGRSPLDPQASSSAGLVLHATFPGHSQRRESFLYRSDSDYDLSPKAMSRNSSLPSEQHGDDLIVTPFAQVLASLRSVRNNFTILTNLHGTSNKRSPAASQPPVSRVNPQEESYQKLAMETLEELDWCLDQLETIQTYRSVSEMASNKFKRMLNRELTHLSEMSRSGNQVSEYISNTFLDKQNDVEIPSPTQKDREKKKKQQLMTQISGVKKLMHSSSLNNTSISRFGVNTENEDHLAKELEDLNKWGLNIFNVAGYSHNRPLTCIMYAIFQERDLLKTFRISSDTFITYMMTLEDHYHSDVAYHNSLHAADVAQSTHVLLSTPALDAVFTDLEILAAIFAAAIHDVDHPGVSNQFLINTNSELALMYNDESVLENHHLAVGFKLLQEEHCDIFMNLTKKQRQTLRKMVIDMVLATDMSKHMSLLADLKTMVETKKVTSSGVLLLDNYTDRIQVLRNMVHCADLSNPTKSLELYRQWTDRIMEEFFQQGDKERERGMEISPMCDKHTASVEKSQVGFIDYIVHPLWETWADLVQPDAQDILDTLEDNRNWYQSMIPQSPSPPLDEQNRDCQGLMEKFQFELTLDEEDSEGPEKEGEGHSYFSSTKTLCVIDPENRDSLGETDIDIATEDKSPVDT

Structure (SMILES)	IC50 (hPDE4B)	IC50 (hPDE4D)	IC50 (hPDE4B; read-out: hPDE4B activity, enzyme-coupled NADH assay, absorbance at 340 nm)	IC50 (hPDE4D; read-out: hPDE4D activity, enzyme-coupled NADH assay, absorbance at 340 nm)
COc1ccc(Cc2ccc(CN3CCNC3=O)[n+]([O-])c2)c(F)c1-c1cccc(Cl)c1 [Example B-083, 1-[5-(3′-Chloro-2-fluoro-6-methoxy-biphenyl-3-ylmethyl)-1-oxy-pyridin-2-ylmethyl]-imidazolidin-2-one]	< 5 µM	< 5 µM		
COc1ccc(Cc2ccc(F)cc2)[n+]([O-])c1-c1cccc([N+](=O)[O-])c1 [Example B-080, 6-(4-Fluoro-benzyl)-3-methoxy-2-(3-nitro-phenyl)-pyridine 1-oxide]	< 5 µM	< 5 µM		
COc1ccc(Cn2cnc(C(=O)O)c2)c(F)c1-c1cccc(Cl)c1 [Example A-059, 1-(3′-Chloro-2-fluoro-6-methoxy-biphenyl-3-ylmethyl)-1H-imidazole-4-carboxylic acid]	5 to 20 µM	< 5 µM		
COc1ccc(Cc2nnn[nH]2)c(F)c1-c1cccc(Cl)c1 [Example A-058, 5-(3′-Chloro-2-fluoro-6-methoxy-biphenyl-3-ylmethyl)-1H-tetrazole]	20 to 40 µM	5 to 20 µM		
COc1ccc(Cc2c(C)nn(CC(=O)O)c2C)cc1-c1cccc([N+](=O)[O-])c1 [Example A-006, [4-(6-Methoxy-3′-nitro-biphenyl-3-ylmethyl)-3,5-dimethyl-pyrazol-1-yl]-acetic acid]	5 to 20 µM	< 5 µM		
COC(=O)c1ccc(Cc2ccc(OC)c(-c3cccc(Cl)c3)c2)cn1 [Example A-073, 5-(3′-chloro-6-methoxy-biphenyl-3-ylmethyl)-pyridine-2-carboxylic methyl ester]	< 5 µM	< 5 µM		
CCOC(=O)C(=O)NCc1ccc(Cc2ccc(OC)c(-c3cccc(Cl)c3)c2F)cn1 [Example A-048, N-[5-(3′-Chloro-2-fluoro-6-methoxy-biphenyl-3-ylmethyl)-pyridin-2-ylmethyl]-oxalamic acid ethyl ester]	< 5 µM	< 5 µM		
COc1ccc(Cc2ccc(C(=O)O)cc2)c(F)c1-c1cccc(C(C)=O)c1 [Example A-019, 4-(3′-Acetyl-2-fluoro-6-methoxy-biphenyl-3-ylmethyl)-benzoic acid]	5 to 20 µM	< 5 µM		
COc1ccc(Cc2ccc(N3CCC3C(=O)O)nc2)cc1-c1cccc(Cl)c1 (stereo not shown) [Example A-067, 1-[5-(3′-chloro-6-methoxy-biphenyl-3-ylmethyl)-pyridin-2-yl]-azetidine-2-carboxylic acid acetate salt]	5 to 20 µM	< 5 µM		
COc1ccc(Cc2ccc(NC(N)=O)[n+]([O-])c2)c(F)c1-c1cccc(Cl)c1 [Example A-014]	5 to 20 µM	< 5 µM		
COc1ccc(Cc2ccc(NS(N)(=O)=O)cc2)c(F)c1-c1cccc(Cl)c1 [Example A-008]	< 5 µM	< 5 µM		
COc1ccc(Cc2ccc(NS(N)(=O)=O)nc2)c(F)c1-c1cccc(Cl)c1 [Example A-010]	< 5 µM	< 5 µM		
COc1ccc(Cc2ccc(NS(N)(=O)=O)cc2)c(F)c1-c1cccc(C(C)=O)c1 [Example A-016]	< 5 µM	< 5 µM		
COc1ccc(C(O)c2ccc(NC(=O)NNC(C)=O)cc2)c(F)c1-c1cccc(Cl)c1 (stereo not shown) [Example A-065, 1-acetic amido-3-{4-[(3′-chloro-2-fluoro-6-methoxy-biphenyl-3-yl)-hydroxy-deutero-methyl]-phenyl}-urea]			5 to 20 µM	< 5 µM
COc1ccc(Cn2cnc3c(=O)[nH]c(N)nc32)cc1-c1cccc([N+](=O)[O-])c1 [Example A-004, 2-Amino-9-(6-methoxy-3′-nitro-biphenyl-3-ylmethyl)-1,9-dihydro-purin-6-one]	20 to 40 µM	5 to 20 µM		
COc1ccc(Cc2ccc3nc(C(=O)O)cn3c2)c(F)c1-c1cccc(Cl)c1 [Example A-043, 6-(3′-Chloro-2-fluoro-6-methoxy-biphenyl-3-ylmethyl)-imidazo[1,2-a]pyridine-2-carboxylic acid]	5 to 20 µM	< 5 µM		
COc1ccc(Cn2cncc2C(=O)O)c(F)c1-c1cccc(Cl)c1 [Example A-060, 3-(3′-Chloro-2-fluoro-6-methoxy-biphenyl-3-ylmethyl)-3H-imidazole-4-carboxylic acid]	5 to 20 µM	< 5 µM		
COc1ccc(Cc2nnc(NC(=O)NCCCC(=O)O)s2)c(F)c1-c1cccc(Cl)c1 [Example A-031, 4-{3-[5-(3′-Chloro-2-fluoro-6-methoxy-biphenyl-3-ylmethyl)-[1,3,4]thiadiazol-2-yl]-ureido}-butyric acid]	5 to 20 µM	< 5 µM		

The next lines start with results.

IC50 (hPDE4B)	IC50 (hPDE4D)	Structure (SMILES)	IC50 (hPDE4B; read-out: hPDE4B activity, enzyme-coupled NADH assay, absorbance at 340 nm)	IC50 (hPDE4D; read-out: hPDE4D activity, enzyme-coupled NADH assay, absorbance at 340 nm)
< 5 µM	< 5 µM	COc1ccc(Cc2ccc(O)nc2)c(F)c1-c1cccc(Cl)c1 [Example A-036]		
< 5 µM	< 5 µM	COc1ccc(Cc2cnc(N3CCCC3C(=O)O)nc2)c(F)c1-c1cccc(Cl)c1 (stereo not shown) [Example A-040, 1-[5-(3′-Chloro-2-fluoro-6-methoxy-biphenyl-3-ylmethyl)-pyrimidin-2-yl]-pyrrolidine-2-carboxylic acid]		
< 5 µM	< 5 µM	COc1ccc(Cc2ccc(N(CC(=O)O)C(N)=O)nc2)c(F)c1-c1cccc(Cl)c1 [Example A-057, {1-[5-(3′-chloro-2-fluoro-6-methoxy-biphenyl-3-ylmethyl)-pyridin-2-yl]-ureido}-acetic acid]		
< 5 µM	< 5 µM	COc1ccc(Cc2cnc(N(C)CC(=O)O)nc2)c(F)c1-c1cccc(Cl)c1 [Example A-047, {[5-(3′-Chloro-2-fluoro-6-methoxy-biphenyl-3-ylmethyl)-pyrimidin-2-yl]-methyl-amino}-acetic acid]		
5 to 20 µM	< 5 µM	COc1ccc(Cc2cnc(N3CC(C(=O)O)C3)nc2)c(F)c1-c1cccc(Cl)c1 [Example A-053, 1-[5-(3′-Chloro-2-fluoro-6-methoxy-biphenyl-3-ylmethyl)-pyrimidin-2-yl]-azetidine-3-carboxylic acid]		
< 5 µM	< 5 µM	COc1ccc(Cc2ccc(N3CCC3C(=O)O)nc2)c(F)c1-c1cccc(Cl)c1 (stereo not shown) [Example A-054]		
20 to 40 µM	< 5 µM	COc1ccc(Cc2cnc(N3CCC(C(=O)O)C3)nc2)c(F)c1-c1cccc(Cl)c1 (stereo not shown) [Example A-044, 1-[5-(3′-Chloro-2-fluoro-6-methoxy-biphenyl-3-ylmethyl)-pyrimidin-2-yl]-pyrrolidine-3-carboxylic acid]		
< 5 µM	< 5 µM	COc1ccc(Cc2ccc(NCC(=O)O)nc2)c(F)c1-c1cccc(Cl)c1 [Example A-035, [5-(3′-chloro-2-fluoro-6-methoxy-biphenyl-3-ylmethyl)-pyridin-2-ylamino]-acetic acid]		
5 to 20 µM	< 5 µM	COc1ccc(Cc2ccc(NC(=O)NCCC(=O)O)nc2)c(F)c1-c1cccc(Cl)c1 [Example A-032]		
5 to 20 µM	< 5 µM	COc1ccc(Cc2ccc(N3CC[C@@H]3C(=O)O)nc2)c(F)c1-c1cccc(Cl)c1 [Example A-061, (R)-1-[5-(3′-chloro-2-fluoro-6-methoxy-biphenyl-3-ylmethyl)-pyridin-2-yl]-azetidine-2-carboxylic acid]		
< 5 µM	< 5 µM	CCNC(=O)Nc1ccc(Cc2ccc(OC)c(-c3cccc(Cl)c3)c2F)c[n+]1O [Example B-081, 1-[5-(3′-Chloro-2-fluoro-6-methoxy-biphenyl-3-ylmethyl)-1-oxy-pyridin-2-yl]-3-ethyl-urea]		
